Assay results reported in patent US5773464A, “C-10 epoxy taxanes” (Bristol-Myers Squibb Company, priority 1997, dated 1998).
Read-outs that look alike come from different tables or passages of the source.

Tested on: HCT-116 human colon carcinoma cells
Assay: Cytotoxicity assay (MTS), 72 hour exposure
Type: cell-based
Settings: HCT-116, 72 h, read-out: Cytotoxicity Assay IC50 (nM) against HCT 116 Human colon tumor cell line
Procedure: Cytoxicity was assessed in HCT-116 human colon carcinoma cells by MTS (3-(4,5-dimethylthiazol-2-yl)-5-(3-carboxymethoxyphenyl)-2-(4-sulphenyl)-2H-tetrazolium, inner salt) assay as reported in T. L. Riss, et. al., "Comparison of MTT, XTT, and a novel tetrazolium compound MTS for in vitro proliferation and chemosensitivity assays.," Mol. Biol. Cell 3 (Suppl.):184a, 1992. Cells were plated at 4,000 cell/well in 96 well microtiter plates and 24 hours later drugs were added and serial diluted. The cells were incubated at 37° form 72 hours at which time the tetrazolium dye, MTS at 333 μg/ml (final concentration), in combination with the electron coupling agent phenazine methosulfate at 25 μM (final concentration) was added. A dehydrogenase enzyme in live cells reduces the MTS to a form that absorbs light at […] which can be quantitated spectrophotometrically. The greater the absorbance the greater the number of live cells. The results are expressed as an IC50, which is the drug concentration required to inhibit cell proliferation (i.e. absorbance at 450 nm) to 50% of that of untreated control cells. The IC50 values for compounds evaluated in this assay are evaluated in Table I.
^1 Cytoxicity was determined after a 72 hour exposure by MTS assay.

[1] = 72 hour exposure, MTS assay, test comparing Ie with paclitaxel, run on a different day

Row | Structure (SMILES) | IC50 [nM] | IC50 [1] [nM] | IC50 (72 hour exposure, MTS assay, test comparing Ia with paclitaxel) [nM]
1 | CC(=O)O[C@@]12CO[C@@H]1C[C@H](O)[C@@]1(C)C(=O)C3(CO3)C3=C(C)[C@@H](OC(=O)[C@H](O)[C@@H](NC(=O)c4ccccc4)c4ccccc4)C[C@@](O)([C@@H](OC(=O)c4ccccc4)[C@H]21)C3(C)C (stereo partly shown) [Compound Ia] | 2 |  | 
2 | COCO[C@H]1C[C@H]2OC[C@@]2(OC(C)=O)[C@H]2[C@H](OC(=O)c3ccccc3)[C@]3(O)C[C@H](OC(=O)[C@H](O)[C@@H](NC(=O)c4ccccc4)c4ccccc4)C(C)=C(C4(CO4)C(=O)[C@]12C)C3(C)C (stereo partly shown) [Compound Ie] |  | 1.5 | 
3 | CC(=O)O[C@H]1C(=O)[C@@]2(C)[C@H]([C@H](OC(=O)c3ccccc3)[C@]3(O)C[C@H](OC(=O)[C@H](O)[C@@H](NC(=O)c4ccccc4)c4ccccc4)C(C)=C1C3(C)C)[C@]1(OC(C)=O)CO[C@@H]1C[C@@H]2O [paclitaxel] |  | 1 | 2.9
